Data from patent US9737520B2, “Aclidinium for use in improving the quality of sleep in respiratory patients” (Almirall, S.A., priority 2011, dated 2017).

How the values were obtained:
[1] = test system: respiratory patients; conditions: administration in the evening versus only in the morning; cited from earlier work
[2] = test system: patients with moderate-to-severe COPD; assay: Phase IIa randomised, double-blind, double-dummy, crossover trial; sleep difficulties score on patient diary card (Example 3); type: in vivo, human; conditions: 15 days; for average score (+/-SEM), change in sleep difficulties score with respect to baseline: aclidinium 400 μg BID, tiotropium 18 μg QD, score 0-4
Method: In a Phase IIa randomised, double-blind, double-dummy, crossover trial, patients with moderate-to-severe COPD received inhaled aclidinium 400 μg BID, tiotropium 18 μg QD and placebo for 15 days, with a 9-15 day washout between treatment periods.
The incidence of sleep difficulties was recorded daily on a patient diary card. As in Example 1, the scores ranged from 0 for none to 1-4 for increasing severity of the sleep difficulties. The change in the score produced by each treatment with respect to the baseline was then measured.

[3] = to two inactive metabolites; cited from earlier work

SMILES | bronchodilation during the night [1] | statistical difference of the sleep difficulties score with placebo ([2]; aclidinium 400 μg BID (p<0.05), tiotropium 18 μg QD (p>0.05)) | average score (+/-SEM), change in sleep difficulties score with respect to baseline [2] | hydrolysis in human plasma [3]
C[N+]1(C)[C@@H]2C[C@@H](OC(=O)C(O)(c3cccs3)c3cccs3)C[C@H]1[C@@H]1O[C@@H]12 [tiotropium] | does not produce more bronchodilation during the night | no statistically significant difference | −0.011 (0.091) | –
O=C(O[C@H]1C[N+]2(CCCOc3ccccc3)CCC1CC2)C(O)(c1cccs1)c1cccs1 [aclidinium, 3(R)-(2-hydroxy-2,2-dithien-2-ylacetoxy)-1-(3-phenoxypropyl)-1-azoniabicyclo[2.2.2]octane] | – | – | −0.123 (0.089) | rapidly hydrolysed
